“Also recorded” adds a separate entry of the source. Where a name gives a salt, the structure may show the parent alone.
Key:
anesthetized rat = test: Anesthetized rat spirometry screening assay; type: in vivo; settings: for AUC MV Inc (2 min) (ratio vs. std*): 2 minute AUC of minute volume increase vs. comparator N-[2,6-di-(n-propylamino)-[1,3]pyrimidin-4-yl]-N,O-dimethyl-hydroxylamine
Description: Effect of Compounds of the Invention on Respiratory Rate (RR), Tidal Volume (VT), and the Product Minute Volume Using an Anesthetized Rat Spirometry Screening Assay
Anesthetized rats provide a quick method of screening compounds for respiratory and cardiovascular activity. In contrast to the conscious rat model, this model offers an experimental set up with less variation in the baseline cardiovascular and respiratory measures. Compounds screened in this assay may be examined in a conscious rat model.
Rats were initially anesthetized with 3% isoflurane (inhaled) and femoral artery and vein cannulas were surgically inserted. Once cannulated, the rats were transitioned to urethane anesthesia (1.5 g/kg; i.v.) and a tracheal cut-down was performed. After placing the tracheal cannula, it was connected to a pneumotachometer to record respiratory airflow from which respiratory rate (RR), tidal volume (VT), and their product minute volume were derived. After the surgical preparation was complete, animals were allowed to stabilize for 30 minutes while respiratory rate, tidal volume, minute volume, blood pressure and heart rate were recorded continuously. Arterial blood gases (ABG) were obtained from arterial blood collected from the femoral artery. ABG measurements were taken before and 6 minutes after vehicle and each dose of compound administered. Compounds being screened were administered via bolus injections through the venous cannula followed by a saline flush (total time of administration is approximately 30 seconds), and the animal was monitored for at least 6 minutes for changes in cardiovascular efforts. Compounds were prepared in formulations identified to ensure optimal solubility. As such, vehicle controls were matched for the formulation of each compound tested. Dosing of the compound being screened was 0.1 and 0.3 mg/kg. The next dose was not administered until all cardiovascular and respiratory measures had returned to baseline levels. The positive control compounds used were N-[4,6-di-(n-propylamino)-[1,3,5]triazin-2-yl]-N,O-dimethyl-hydroxylamine or N-[2,6-di-(n-propylamino)-[1,3]pyrimidin-4-yl]-N,O-dimethyl-hydroxylamine (both administered at the end of each screening experiment (0.3 mg/kg dose) to validate the experiment and also to serve as a measure with which the compound being screened could be compared.
Data were analyzed by collecting cardiovascular and respiratory data in 30 second averages (BINs). Data were plotted 2 minutes before challenge and then 6 minutes after challenge.

[1] = system: rats chronically treated with morphine; test: Apnea, ventilation and sleep structure in rats chronically treated with morphine (whole-body plethysmography); type: in vivo, Zucker rats; settings: oral gavage, hydrochloride; for apnea frequency / number of apneas per hr expressed as a percent change from baseline (pre-drug): versus treatment with a vehicle
Description: The objective of this study was to quantify the effects of selected compounds of this invention on apnea, ventilation and sleep structure in a rat model. The study consisted of two treatment conditions: (1) chronic morphine and test compound administered orally, and (2) chronic morphine and oral vehicle.
Adult male lean Zucker rats were anesthetized for electroencephalogram (EEG) and electromyogram (EMG) telemeter implantation. At least one week was permitted post-surgery before animals were used further. Morphine sulfate was added to the drinking water of singly housed rats beginning with 0.1 mg/ml morphine and increasing the concentration in increments, so that a final concentration of 0.6 mg/ml was achieved within 2 weeks. All respiratory measurements were made while animals were unrestrained in whole-body plethysmography chambers to permit animals to sleep and move freely. To avoid eliciting withdrawal, morphine water was continuously available during each plethysmography experiment. Minute volume and the number of central sleep apneas (CSA) were measured during all treatment conditions. A period of at least 1 to 1.5 h was permitted for animals to acclimate to the chamber before data collection began. The biopotential telemeters and their receivers were placed directly under the plethysmographic chambers and were used to continuously to capture EEG, EMG, and body temperature signals. Only data collected between the hours of 10 am to 4:30 pm were used in the final analysis to control for the effects of circadian rhythm on breathing.
Test compound in vehicle or an equivalent volume of vehicle was administered via an oral gavage tube at 12 pm. Data collected between 10 am and 12 pm represented baseline (pre-drug) conditions. Data collected between […] represented post-drug conditions. Analyses of the EEG and EMG waveforms for the purpose of staging sleep-wake behavior in rats as awake, NREM sleep, and REM sleep were based on previous sleep studies involving rodents. Central apneas were defined as a respiratory cycle period that was more than or equal to twice the average cycle period during baseline recordings. Percent time in each sleep-wake state, minute volume, and central sleep apnea counts were compared between treatment groups using a two-way ANOVA (factors: drug treatment and time). Breathing data during wakefulness was not analyzed because movement prevents measurement of accurate volumes when using whole-body plethysmography. When differences were detected with ANOVA, Student-Neuman-Keuls post hoc tests were run for all main effects and interactions. Differences were considered significant when p<0.05. Values are expressed as means±SE.

in vitro = settings: male, rat, microsomes
[2] = In vitro metabolic stability in human liver microsomes (HLM); settings: both, human, liver microsomes

| Structure (SMILES) | AUC MV Inc (2 min) (ratio vs. std*) (anesthetized rat) [ratio vs. std] | half-life at 5 μM (in vitro) [min] | half-life at 5 μM [2] [min] | other results |
| --- | --- | --- | --- | --- |
| CCCNc1nc(NC)c2nc(NCCC)nc(NC)c2n1.Cl [Compound 27a, N^4,N^8-Dimethyl-N^2,N^6-di-n-propyl-pyrimido[5,4-d]pyrimidine-2,4,6,8-tetraamine hydrochloride] | 1.22 | 136 | 127 | duration of increase in minute ventilation (anesthetized rat; anesthetized rat, i.v. bolus): approximately 2 minutes; effect on blood pressure (anesthetized rat; anesthetized rat, i.v. bolus): minimal effects; effect on minute ventilation above baseline values (anesthetized rat; anesthetized rat, i.v. bolus): increase; effect on pulse rate (anesthetized rat; anesthetized rat, i.v. bolus): minimal effects; effect on respiratory rate (anesthetized rat; anesthetized rat, i.v. bolus): stimulatory effects; dose dependence of effect on minute volume (anesthetized rat; based on a two-minute average): dose-dependent effect; effect compared to a reference compound as measured by area-under-curve (anesthetized rat; minute volume, two-minute average): greater effect; apnea frequency [1]: reduced; also recorded: decreased; number of apneas per hr expressed as a percent change from baseline (pre-drug) [1]: reduced; also recorded: decreased; minute volume compared to a vehicle-treated group [1]: did not cause an increase; also recorded: do not cause increases; number of apneas per hr versus vehicle [1]: reduced; also recorded: decreased; ventilation per unit time compared to vehicle [1]: did not cause an increase; also recorded: do not cause an increase |
| CCCNc1nc(NCCOC(C)C)nc2c(NCCC)nc(NC)nc12 [Compound 37a, N^2-(2-Isopropoxy-ethyl)-N^6-methyl-N^4,N^8-di-n-propyl-pyrimido[5,4-d]pyrimidine-2,4,6,8-tetraamine] | 1.23 | 76 | 135 | – |
| CNc1nc(NC)c2nc(NC)nc(NC)c2n1.Cl [Compound 79a, N^2,N^4,N^6,N^8-Tetramethyl-pyrimido[5,4-d]pyrimidine-2,4,6,8-tetraamine hydrochloride] | 0.00 | 388 | > 500 | – |
| CCCNc1nc(NCCO)nc2c(NCCC)nc(NC)nc12 [Compound 33a, 2-(6-Methylamino-4,8-bis-n-propylamino-pyrimido[5,4-d]pyrimidin-2-yl-amino)-ethanol] | 0.29 | 106 | 115 | – |
| CCCNc1nc(N(CC)CC)nc2c(NCCC)nc(NC)nc12.Cl [Compound 31a, N^2,N^2-Diethyl-N^6-methyl-N^4,N^8-di-n-propyl-pyrimido[5,4-d]pyrimidine-2,4,6,8-tetraamine hydrochloride] | 0.01 | 108 | 417 | – |
| CNc1nc(N(C)NC)nc2c(NC)nc(N(C)C)nc12 [Compound 93a, 6-(N,N′-Dimethyl-hydrazino)-N^2,N^2,N^4,N^8-tetramethyl-pyrimido[5,4-d]pyrimidine-2,4,8-triamine] | 0.03 | 14 | 81 | – |
| CCCNc1nc(NCc2cccc(Cl)c2C)nc2c(NCCC)nc(NC)nc12 [Compound 49a, N^2-(3-Chloro-2-methyl-benzyl)-N^6-methyl-N^4,N^8-di-n-propyl-pyrimido[5,4-d]pyrimidine-2,4,6,8-tetraamine hydrochloride] | 0.11 | 84 | 190 | – |
| CCCNc1nc(-c2ccc(F)cc2)nc2c(NCCC)nc(NC)nc12 [Compound 114a, N^2-Methyl-N^4,N^8-di-n-propyl-6-(4-fluoro-phenyl)-pyrimido[5,4-d]pyrimidine-2,4,8-triamine] | 0.05 | 249 | 305 | – |
| CCCNc1nc(NCc2ccc(Cl)c(Cl)c2)nc2c(NCCC)nc(NC)nc12 [Compound 51a, N^2-(3,4-Dichlorobenzyl)-N^6-methyl-N^4,N^8-di-n-propyl-pyrimido[5,4-d]pyrimidine-2,4,6,8-tetraamine] | 0.08 | 72 | 127 | – |
| CCNc1nc(NC)c2nc(NCC)nc(NC)c2n1.Cl [Compound 81a, N^2,N^6-Diethyl-N^4,N^8-dimethyl-pyrimido[5,4-d]pyrimidine-2,4,6,8-tetraamine hydrochloride] | 0.00 | 274 | 198 | – |
| CCCNc1nc(N(C)OC)nc2c(NCCC)nc(Cl)nc12.Cl [Compound 17a, N-(6-Chloro-4,8-bis-n-propylamino-pyrimido[5,4-d]pyrimidin-2-yl)-O,N-dimethyl-hydroxylamine hydrochloride] | 0.05 | 25 | 29 | – |
| CCCNc1nc(N(C)C)nc2c(NCCC)nc(NC)nc12.Cl [Compound 29a, N^2,N^2,N^6-Trimethyl-N^4,N^8-di-n-propyl-pyrimido[5,4-d]pyrimidine-2,4,6,8-tetraamine hydrochloride] | 0.95 | 44 | 94 | – |
| CCCNc1nc(N2CCCCC2)nc2c(NCCC)nc(NC)nc12 [Compound 43a, N^2-Methyl-N^4,N^8-di-n-propyl-6-(piperidin-1-yl)-pyrimido[5,4-d]pyrimidine-2,4,8-triamine] | 0.20 | 69 | 98 | – |
| CCCNc1nc(N(C)OC)nc2c(NCCC)nc(NC)nc12.Cl [Compound 24a, O,N-Dimethyl-N-(6-methylamino-4,8-bis-n-propylamino-pyrimido[5,4-d]pyrimidin-2-yl)-hydroxylamine hydrochloride] | 0.43 | 162 | 119 | – |
| C=CCNc1nc(NC)nc2c(NCC=C)nc(NC)nc12.Cl [Compound 145a, N^4,N^8-Diallyl-N^2,N^6-dimethyl-pyrimido[5,4-d]pyrimidine-2,4,6,8-tetraamine hydrochloride] | 0.88 | – | – | apnea frequency [1]: reduced; also recorded: decreased; number of apneas per hr expressed as a percent change from baseline (pre-drug) [1]: reduced; also recorded: decreased; minute volume compared to a vehicle-treated group [1]: did not cause an increase; also recorded: do not cause increases; number of apneas per hr versus vehicle [1]: reduced; also recorded: decreased; ventilation per unit time compared to vehicle [1]: did not cause an increase; also recorded: do not cause an increase |
| CCCNc1nc(N2CCCC2)nc2c(NCCC)nc(NC)nc12 [Compound 45a, N^2-Methyl-N^4,N^8-di-n-propyl-6-pyrrolidin-1-yl-pyrimido[5,4-d]pyrimidine-2,4,8-triamine] | 0.41 | > 500 | > 500 | – |
| C#CCNc1nc(NC)nc2c(NCCC)nc(NC)nc12.Cl [Compound 13a, N^2,N^6-Dimethyl-N^4-n-propyl-N^8-prop-2-ynyl-pyrimido[5,4-d]pyrimidine-2,4,6,8-tetraamine hydrochloride] | 0.56 | 204 | 342 | – |
